Common to all, as to assay: NCI tumour cell line growth inhibition, 48 h
Assay [1] deals with DMS 114 small cell lung.
Assay [2] deals with SK-MEL-5 melanoma.
The subject of assay [3] is MALME-3M melanoma.
Assay [4] relates to U251 CNS.
Assay [5] has as its system HCT-15 colon.
Assay [6] has as its system SNB-19 CNS.
The test system of assay [7] is HOP-18 NSCLC.
In assay [8] the test system is NCI-H522 lung.
For assay [9], the system named is HS 578T breast.
Assay [10] relates to DU-145 prostate.

Molecules are shown by their SMILES.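 A five-concentration, 48-hour dose response in 96-well plates underlies each endpoint, interpolated linearly between surrounding concentrations. GI50 marks 50% less growth. The concentration for full growth arrest is given as TGI.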

In the case of `Cn1cc(C(=O)/C(Cl)=C(\Cl)C(=O)O)c2ccccc21`, the TGI in assay [1], in assay [2], in [3], in [4] and in [5] was more than 100 µM throughout.

For the molecule `C/C=C/CP(=O)(c1ccccc1)c1ccccc1`, the TGI in assay [1], in assay [2], in assay [3], in assay [6], in assay [7] and in assay [4] was more than 100 µM in each case. For the same molecule, the TGI in assay [5] and in [8] was more than 100 µM in each case.

Turning to `O=C(CC1(O)C(=O)Nc2ccccc21)c1ccc(O)cc1O` (stereo unspecified), the TGI in [1], in assay [2], in assay [3], in assay [6], in assay [5] and in [8] was more than 100 µM throughout.

For the molecule `NC1=NN(c2ccccc2)C(=O)C1C(=O)C(=O)Nc1cccc(C(F)(F)F)c1` (stereo unspecified), the TGI in assay [1], in assay [2], in assay [3], in assay [6], in assay [7] and in assay [4] was more than 100 µM each time. The TGI in assay [5] and in [8] was more than 100 µM throughout.

With `O[C@H]1[C@H]2[C@H](O)CCCN2C[C@H]1O`, the TGI in assay [1], in assay [2], in [3], in assay [6], in [7] and in assay [4] was more than 100 µM in each case. Further, the TGI in assay [5] and in assay [8] was more than 100 µM each time.

With `COC1=CC(C)C2C[C@H]3O[C@H](O)C[C@H]4C(C)C(=O)C(O)C([C@@]2(C)C1=O)[C@@]34C` (stereo partly specified), the TGI in [1], in assay [2], in assay [3], in [7], in [5] and in assay [8] was more than 100 µM in each case.

`N#Cc1c(C(N)=O)ncn1Cc1ccccc1`: the TGI in [1], in assay [2], in [3], in assay [6], in assay [7] and in assay [4] was more than 100 µM in each case. Further, the TGI in [5] and in [8] was more than 100 µM in each case.

Consider `O=C1CC(c2ccccc2)NCN1` (stereo unspecified), for which the TGI in assay [1], in [2], in [3], in assay [6], in assay [7] and in assay [4] was more than 100 µM each time. Further, the TGI in assay [5] and in [8] was more than 100 µM each time.

As for `Cc1ccc(NC(=O)/C(=N/NC(=O)CC#N)C2C(=O)N(c3ccccc3)N=C2N)cc1C` (stereo unspecified), the TGI in [1], in [2], in assay [3], in [6], in [7] and in assay [4] was more than 100 µM in each case. The TGI in assay [5] and in assay [8] was more than 100 µM each time.

As to `COc1ccc(C2c3cc4c(cc3OC(O)(CO)C2C(=O)O)OCO4)c(OC)c1OC` (stereo unspecified) (tested in a mixture with another compound), the TGI in [1], in [2], in assay [3], in assay [6], in assay [7] and in assay [4] was more than 100 µM throughout. Moreover, in assay [5], the TGI was more than 100 µM.

`CC1(C)OC(=O)C=C(O)O1.CC1(C)OC(=O)C=C(O)O1.CCO.Oc1ccc2c(c1)CCC2.[Ti]`: the GI50 was more than 100 µM in [1]; more than 100 µM in assay [2]; more than 100 µM in assay [3]; 56.3 µM in assay [6]; more than 100 µM in assay [7]; more than 100 µM in assay [5]. In [8], the GI50 was more than 100 µM. For the same molecule, the TGI in assay [1], in assay [2], in assay [3], in assay [6], in assay [7] and in assay [5] was more than 100 µM throughout. The TGI in assay [8] is more than 100 µM.

In the case of `C/C=C/C/C=C/CCC(=O)C1OC1C(N)=O` (stereo unspecified), the TGI in assay [9] was 76.2 µM; in assay [2], 28.3 µM; in [3], 32.9 µM; in [6] it was 32.1 µM; in assay [10], 31.3 µM; in [4] it was 30.7 µM. Also, the values for the TGI in [5] and in [8] were 25.9 µM and 25.8 µM, respectively.

Turning to `CCSc1nc(=S)[nH]c2[nH]ncc12`, the GI50 is 26 µM in assay [9]; 59.1 µM in assay [2]; more than 100 µM in assay [3]; more than 100 µM in assay [6]; more than 100 µM in assay [10]; more than 100 µM in assay [4]. Besides, the GI50 was more than 100 µM in assay [5] and 46.1 µM in [8]. Also, the TGI in [9] was 60.8 µM; in [2] it was more than 100 µM; in assay [3], more than 100 µM; in [6], more than 100 µM; in [10], more than 100 µM; in assay [4], more than 100 µM. The TGI in assay [5] and in assay [8] was more than 100 µM in each case.

As to `O=C(c1cccs1)c1c(C(F)(F)F)n([O-])c2cc(C(F)(F)F)ccc2[n+]1=O`, the GI50 in [9] is 0.189 µM; in assay [2] it was 0.314 µM; in [3], 0.347 µM; in assay [6], 0.348 µM; in assay [10], 0.179 µM; in assay [4] it was 0.153 µM. In addition, the GI50 in assay [5] is 0.175 µM; in assay [8] it was 0.294 µM. The TGI is 0.546 µM in [9]; 0.723 µM in [2]; 0.772 µM in [3]; 0.707 µM in assay [6]; 0.326 µM in assay [10]; 0.288 µM in assay [4]. In addition, the values for the TGI in assay [5] and in [8] were 0.349 µM and 0.738 µM, respectively.

Source of the values: PubChem BioAssay (NCI).
